Experimental data from US10966911B2, “Melanin decomposition inhibitor” (KAO CORPORATION, priority 2016, dated 2021).

What was measured:
[1] = test system: melanocytes (HEMn-LP, HEMn-DP); test: Cellular respiratory chain (growth) activity, alamarBlue, melanocyte single culture system; format: cell-based, human; details: melanocytes (lightly and darkly); concentration range of 30 μM or less; 4 days; FIGS. 14C, 14D
Experimental: Melanocytes (lightly and darkly) were seeded in 96-well plates at a cell density of 2×10^4 cells/well (100 μL/well). […] As a control, the same amount of DMSO was added. After completion of culture, the whole medium was replaced (100 μL/well), a reagent, alamarBlue (Bio-Rad AbD Serotec Limited) was added so as to obtain a ratio of 10 μL/well. Incubation was carried out at 37° C. in 5 vol % CO2 atmospheric conditions for one hour. Thereafter, fluorescence intensity of the medium was measured (Ex544 nm/Em590 nm) to evaluate cellular respiratory chain (growth) activity.

[2] = test system: dopa oxidase activity of melanocytes; test: Dopa oxidase activity of melanocytes in keratinocyte-melanocyte co-culture system; format: cell-based, human; details: melanocytes (lightly and darkly), proguanil 0.1-1000 μM, 4 days, versus DMSO, FIGS. 16A, 16B
Experimental: Melanocytes (lightly and darkly) were seeded in 96-well plates at a cell density of 2×10^4 cells/well (100 μL/well). […] Two days later, proguanil was added at a final concentration of 0.1, 0.3, 1, 3, 10, 30, 100, 300 or 1000 μM and culture was performed at 37° C. in 5 vol % CO2 atmospheric conditions for 4 days. As a control, the same amount of DMSO was added. After completion of culture, the whole medium was replaced (100 μL/well), a reagent, alamarBlue (Bio-Rad AbD Serotec Limited) was added so as to obtain a ratio of 10 μL/well. Incubation was carried out at 37° C. in 5 vol % CO2 atmospheric conditions for one hour. Thereafter, fluorescence intensity of the medium was measured (Ex544 nm/Em590 nm) to evaluate cellular respiratory chain (growth) activity. […] The cells were lysed at 4° C. over 2 hours and dopa oxidase activity was measured. The activity measurement was performed by the following method based on the […] method (Winder A. et al., 1991, Eur. J. Biochem. 198: 317-326): to individual wells containing a cell lysate, the Assay Buffer (80 μL) as mentioned above, an aqueous 20.7 mM MBTH (3-methyl-2-benzothiazolinone hydrazone) solution (60 μL) and an aqueous 5 mM L-DOPA (L-dihydroxyphenylalanine) (40 μL) solution serving as a substrate were added, a reaction was performed at 37° C. for 30 minutes and the absorbance at a wavelength of 505 nm was measured. […]

human skin tissue [3] = test: HE staining of skin tissue cultured with proguanil (tissue damage); format: cell-based; details: proguanil 180 μM; 5 days; FIG. 13 lower stage
Experimental: (§1) The human skin tissue, from which subcutaneous fat was previously trimmed, was cut into small pieces having a size of about 1 cm×1 cm by knife. The small pieces were cultured by using a 6-well plate at 37° C. under a 5 vol % CO2 atmospheric conditions. In the culture, Advanced DMEM medium containing a 10% (v/v) Fetal Bovine Serum (FBS) (Thermo Fisher Scientific, respectively) was used. […] More specifically, the skin tissue was embedded in paraffin and the resultant paraffine block was sliced to prepare paraffin sections of 5 μm in thickness. A Fontana ammonia silver solution (manufactured by MUTO PURE CHEMICALS Co., Ltd.) was allowed to react at room temperature for two hours to visually distinguish melanin granules. Thereafter, nuclear staining was performed using Kernechtrot solution (manufactured by MUTO PURE CHEMICALS Co., Ltd.). […] At the same time, HE staining was carried out.

human skin tissue [4] = test: Effect of proguanil on skin color of cultured human skin tissue; format: cell-based; details: proguanil 150, 180, 210, 240, 270 or 300 μM; Day 5; versus DMSO; FIG. 12
Experimental: A normal human skin tissue, which was obtained at the time of surgical operation, was provided by a medical college (department of plastic surgery). The human skin tissue, from which subcutaneous fat was previously trimmed, was cut into small pieces having a size of about 1 cm×1 cm by knife. The small pieces were cultured by using a 6-well plate at 37° C. under a 5 vol % CO2 atmospheric conditions. In the culture, Advanced DMEM medium containing a 10% (v/v) Fetal Bovine Serum (FBS) (Thermo Fisher Scientific, respectively) was used. A human skin tissue was allowed to stand still in a 6-well plate. Proguanil was added in the medium at a final concentration of 150, 180, 210, 240, 270 or 300 μM and then tissue culture was performed. As a control, DMSO was added in the same amount. Medium replacement was carried out every 2 to 3 days. Day 5 after initiation of the culture, the appearance of the skin tissue was observed and photographed.

[5] = test system: dopa oxidase activity of melanocytes; test: Dopa oxidase activity of melanocytes in melanocyte single culture system; format: cell-based, human; details: melanocytes (lightly and darkly); proguanil 0.1-1000 μM; 4 days; versus DMSO; FIGS. 14A, 14B
Experimental: Normal human neonatal foreskin-derived epidermal melanocytes (Human Epidermal Melanocytes, neonatal, lightly pigmented donor (HEMn-LP) and Human Epidermal Melanocytes, neonatal, darkly pigmented donor (HEMn-DP); melanocytes (lightly) and melanocytes (darkly)), a growth medium for epidermal melanocytes (Medium254) and a growth additive (HMGS) for the medium were purchased from Thermo Fisher Scientific. Melanocytes were cultured at 37° C. in 5 vol % CO2 atmospheric conditions.
Melanocytes (lightly and darkly) were seeded in 96-well plates at a cell density of 2×10^4 cells/well (100 μL/well). […] Thereafter, fluorescence intensity of the medium was measured (Ex544 nm/Em590 nm) to evaluate cellular respiratory chain (growth) activity. […] The cells were lysed at 4° C. over 2 hours and dopa oxidase activity was measured. The activity measurement was performed by the following method based on the […] method (Winder A. et al., 1991, Eur. J. Biochem. 198: 317-326): to individual wells containing a cell lysate, the Assay Buffer (80 μL) as mentioned above, an aqueous 20.7 mM MBTH (3-methyl-2-benzothiazolinone hydrazone) solution (60 μL) and an aqueous 5 mM L-DOPA (L-dihydroxyphenylalanine) (40 μL) solution serving as a substrate were added, a reaction was performed at 37° C. for 30 minutes and the absorbance at a wavelength of 505 nm was measured.

LC3-II = test: Autophagy activity of epidermal keratinocytes (LC3-II accumulation with chloroquine diphosphate, Western blotting); format: cell-based, human; details: proguanil 0.3, 1, 3, 10 or 30 μM in presence of 10 μM chloroquine diphosphate, FIG. 18
Experimental: Normal human neonatal foreskin-derived epidermal keratinocytes (Human Epidermal Keratinocytes, neonatal (HEKn) lightly; keratinocytes) were purchased from Thermo Fisher Scientific. […] The keratinocytes were cultured in a grow medium (Epilife) epidermal keratinocytes (Thermo Fisher Scientific) supplemented with a growth additive (Humedia-KG) (manufactured by Kurabo Industries Ltd.) at 37° C. in 5 vol % CO2 atmospheric conditions.
Keratinocytes were seeded in a 6-well plate at a density of 1.5×10^5 cells/well (2 mL/well). The following day, proguanil was added so as to obtain a final concentration of 0.3, 1, 3, 10 or 30 μM. Culture was performed at 37° C. in 5 vol % CO2 atmospheric conditions. As a control, the same amount of DMSO was added. […] The following day, Chloroquine diphosphate attached to LC3B Antibody Kit for Autophagy (Thermo Fisher Scientific) was added so as to obtain a final concentration of 10 μM. Culture was performed at 37° C. in 5 vol % CO2 atmospheric conditions for 24 hours. After completion of the culture, SDS-PAGE and western blotting were performed in accordance with the method as mentioned above. As a primary antibody, anti-LC3B (1:1000) attached to the kit mentioned above was used. […] Expression of β-actin as the internal standard was evaluated by using monoclonal antibody specific for β-actin (Sigma-Aldrich, 1:5000).

human skin tissue [6] = test: Fontana-Masson staining of skin tissue cultured with proguanil; format: cell-based; details: proguanil 180 μM; 5 days; versus DMSO control; FIG. 13 upper stage
Experimental: as §1

[7] = test system: melanocytes (HEMn-LP, HEMn-DP); test: Intracellular melanin amount of melanocytes in melanocyte single culture system; format: cell-based, human; details: melanocytes (lightly and darkly); proguanil 3, 10 or 30 μM; 7 days; versus DMSO; FIGS. 15A, 15B
Experimental: Normal human neonatal foreskin-derived epidermal melanocytes (Human Epidermal Melanocytes, neonatal, lightly pigmented donor (HEMn-LP) and Human Epidermal Melanocytes, neonatal, darkly pigmented donor (HEMn-DP); melanocytes (lightly) and melanocytes (darkly)), a growth medium for epidermal melanocytes (Medium254) and a growth additive (HMGS) for the medium were purchased from Thermo Fisher Scientific. Melanocytes were cultured at 37° C. in 5 vol % CO2 atmospheric conditions. Melanocytes (lightly and darkly) were seeded in 6-well plates at a cell density of 2×10^5 cells/well (2 mL/well). […] The following day, proguanil was added at a final concentration of 3, 10 or 30 μM and culture was performed at 37° C. in 5 vol % CO2 atmospheric conditions for 7 days. As a control, the same amount of DMSO was added. Note that medium replacement was carried out every 2 to 3 days. After completion of culture, the cell culture plates were washed with PBS and the cells were collected by use of a cell scraper in 1.5 mL micro tubes. To individual tubes, 2M NaOH (150 μL) was added and treatment was performed at 100° C. for 60 minutes to lyse the cells. Each of the lysates was centrifuged at a 21,640 g for 10 minutes at room temperature and the supernatant was recovered. The absorbance of the supernatant recovered was measured at a wavelength of 405 nm and the amount of melanin per well was calculated.

Structure (SMILES): [H]/N=C(\N/C(=N/[H])Nc1ccc(Cl)cc1)NC(C)C [proguanil, 1-(p-chlorophenyl)-5-isopropyl biguanide]
- cell toxicity (cellular respiratory chain activity) [1]: cell toxicity was not observed
- dopa oxidase activity [2]: does not accelerate dopa oxidase activity
- tissue damage (HE staining) (human skin tissue [3]): no damage was induced in the tissue
- darkening of the skin color (human skin tissue [4]): induces darkening of the skin color in a dose-dependent manner
- dopa oxidase activity [5]: did not accelerate dopa oxidase activity
- accumulation of LC3-II (LC3-II): the accumulation was reduced by proguanil in a concentration-dependent manner
- deposition of melanin in the epidermis (human skin tissue [6]): melanin is accumulated in a wider range of the epidermis
- intracellular amount of melanin [7]: does not increase intracellular amount of melanin
